Holding throughout (test): microbe, parasite or virus in culture
Assay type in all cases: cell-based

Experiment [1] concerns influenza A virus minigenome (PB2, PB1, PA, NP; luciferase reporter) in 293T cells, RNP_Hubei. The following applies: HEK-293T, 48 h.
Experiment [2] concerns influenza A virus minigenome (PB2, PB1, PA, NP; luciferase reporter) in 293T cells, RNP_Alaska. The note with it: HEK-293T, 48 h.
Experiment [3] deals with influenza A virus minigenome (PB2, PB1, PA, NP; luciferase reporter) in 293T cells, RNP_CAL. The following applies: HEK-293T, 48 h, read-out: RNP_CAL_EC50.

Where only a bound is given, the exact number is not on record here.

Turning to `COCCOC(=O)OCOc1c2n(ncc1=O)[C@@H]([C@H](c1ccc(F)cc1)c1cccc(F)c1F)[C@H]1CCCN1C2=O` [Example 86, (((9aR,10S)-10-((R)-(2,3-difluorophenyl)(4-fluorophenyl)methyl)-3,5-dioxo-3,5,8,9,9a,10-hexahydro-7H-pyrrolo[1′,2′:4,5]pyrazino[1,2-b]pyridazin-4-yl)oxy)methyl (2-methoxyethyl) carbonate], the EC50 in experiment [1], in experiment [2] and in experiment [3] was under 100 nM in each case.

Regarding `CC(C)OC(=O)Oc1c2n(ncc1=O)[C@@H]([C@H](c1ccc(F)cc1)c1cccc(F)c1F)[C@H]1CCCN1C2=O` [Example 88, (9aR,10S)-10-((R)-(2,3-difluorophenyl)(4-fluorophenyl)methyl)-3,5-dioxo-3,5,8,9,9a,10-hexahydro-7H-pyrrolo[1′,2′:4,5]pyrazino[1,2-b]pyridazin-4-yl isopropyl carbonate], the EC50 in experiment [1], in experiment [2] and in experiment [3] was under 100 nM throughout.

`CCOC(=O)OCOc1c2n(ncc1=O)[C@@H]([C@H](c1ccc(F)cc1)c1cccc(F)c1F)[C@H]1CCCN1C2=O` [Example 92, (((9aR,10S)-10-((R)-(2,3-difluorophenyl)(4-fluorophenyl)methyl)-3,5-dioxo-3,5,8,9,9a,10-hexahydro-7H-pyrrolo[1′,2′:4,5]pyrazino[1,2-b]pyridazin-4-yl)oxy)methyl ethyl carbonate]: the EC50 in experiment [1], in experiment [2] and in experiment [3] was under 100 nM in each case.

Consider `CC(C)CC(=O)Oc1c2n(ncc1=O)[C@@H]([C@H](c1ccc(F)cc1)c1cccc(F)c1F)[C@H]1CCCN1C2=O` [Example 93, (9aR,10S)-10-((R)-(2,3-difluorophenyl)(4-fluorophenyl)methyl)-3,5-dioxo-3,5,8,9,9a,10-hexahydro-7H-pyrrolo[1′,2′:4,5]pyrazino[1,2-b]pyridazin-4-yl 3-methylbutanoate], for which the EC50 in experiment [1], in experiment [2] and in experiment [3] was under 100 nM in each case.

Turning to `COC(=O)OCOc1c2n(ncc1=O)[C@@H]([C@H](c1cccc(F)c1)c1cccc(F)c1F)[C@H]1CCCN1C2=O` [Example 95, (((9aR,10S)-10-((R)-(2,3-difluorophenyl)(3-fluorophenyl)methyl)-3,5-dioxo-3,5,8,9,9a,10-hexahydro-7H-pyrrolo[1′,2′:4,5]pyrazino[1,2-b]pyridazin-4-yl)oxy)methyl methyl carbonate], the EC50 in experiment [1], in experiment [2] and in experiment [3] was under 100 nM in each case.

For the compound `CN(C)C(=O)Oc1c2n(ncc1=O)[C@@H]([C@H](c1cccc(F)c1)c1cccc(F)c1F)[C@H]1CCCN1C2=O` [Example 96, (9aR,10S)-10-((R)-(2,3-difluorophenyl)(3-fluorophenyl)methyl)-3,5-dioxo-3,5,8,9,9a,10-hexahydro-7H-pyrrolo[1′,2′:4,5]pyrazino[1,2-b]pyridazin-4-yl dimethylcarbamate], the EC50 was 100 to 1000 nM in experiment [1], at least 1000 nM in experiment [2] and at least 1000 nM in experiment [3].

Turning to `COCCOC(=O)Oc1c2n(ncc1=O)[C@@H]([C@H](c1cccc(F)c1)c1cccc(F)c1F)[C@H]1CCCN1C2=O` [Example 97, (9aR,10S)-10-((R)-(2,3-difluorophenyl)(3-fluorophenyl)methyl)-3,5-dioxo-3,5,8,9,9a,10-hexahydro-7H-pyrrolo[1′,2′:4,5]pyrazino[1,2-b]pyridazin-4-yl (2-methoxyethyl) carbonate], the EC50 in experiment [1], in experiment [2] and in experiment [3] was under 100 nM throughout.

Consider `O=C(Oc1c2n(ncc1=O)[C@@H]([C@H](c1cccc(F)c1)c1cccc(F)c1F)[C@H]1CCCN1C2=O)N1CCCCC1` [Example 98, (9aR,10S)-10-((R)-(2,3-difluorophenyl)(3-fluorophenyl)methyl)-3,5-dioxo-3,5,8,9,9a,10-hexahydro-7H-pyrrolo[1′,2′:4,5]pyrazino[1,2-b]pyridazin-4-yl piperidine-1-carboxylate], for which the EC50 in experiment [1], in experiment [2] and in experiment [3] was at least 1000 nM throughout.

Consider `COCCOC(=O)OCOc1c2n(ncc1=O)[C@@H]([C@H](c1cccc(F)c1)c1cccc(F)c1F)[C@H]1CCCN1C2=O` [Example 99, (((9aR,10S)-10-((R)-(2,3-difluorophenyl)(3-fluorophenyl)methyl)-3,5-dioxo-3,5,8,9,9a,10-hexahydro-7H-pyrrolo[1′,2′:4,5]pyrazino[1,2-b]pyridazin-4-yl)oxy)methyl (2-methoxyethyl) carbonate], for which the EC50 in experiment [1], in experiment [2] and in experiment [3] was under 100 nM throughout.

As for `CN1CCN(C(=O)Oc2c3n(ncc2=O)[C@@H]([C@H](c2cccc(F)c2)c2cccc(F)c2F)[C@H]2CCCN2C3=O)CC1` [Example 100, (9aR,10S)-10-((R)-(2,3-difluorophenyl)(3-fluorophenyl)methyl)-3,5-dioxo-3,5,8,9,9a,10-hexahydro-7H-pyrrolo[1′,2′:4,5]pyrazino[1,2-b]pyridazin-4-yl 4-methylpiperazine-1-carboxylate], the EC50 in experiment [1] is 100 to 1000 nM; in experiment [2], at least 1000 nM; in experiment [3] it was at least 1000 nM.

For `O=C(Oc1c2n(ncc1=O)[C@@H]([C@H](c1cccc(F)c1)c1cccc(F)c1F)[C@H]1CCCN1C2=O)N1CCC(N2CCCCC2)CC1` [Example 102, (9aR,10S)-10-((R)-(2,3-difluorophenyl)(3-fluorophenyl)methyl)-3,5-dioxo-3,5,8,9,9a,10-hexahydro-7H-pyrrolo[1′,2′:4,5]pyrazino[1,2-b]pyridazin-4-yl [1,4′-bipiperidine]-1′-carboxylate], the EC50 in experiment [1], in experiment [2] and in experiment [3] was at least 1000 nM each time.

For the compound `COC(=O)C(C)(C)OC(=O)OCOc1c2n(ncc1=O)[C@@H]([C@H](c1cccc(F)c1)c1cccc(F)c1F)[C@H]1CCCN1C2=O` [Example 104, methyl 2-((((((9aR,10S)-10-((R)-(2,3-difluorophenyl)(3-fluorophenyl)methyl)-3,5-dioxo-3,5,8,9,9a,10-hexahydro-7H-pyrrolo[1′,2′:4,5]pyrazino[1,2-b]pyridazin-4-yl)oxy)methoxy)carbonyl)oxy)-2-methylpropanoate], the EC50 in experiment [1], in experiment [2] and in experiment [3] was 100 to 1000 nM in each case.

With `CC(=O)Oc1c2n(ncc1=O)[C@@H]([C@H](c1cccc(F)c1)c1cccc(F)c1F)[C@H]1CCCN1C2=O` [Example 105, (9aR,10S)-10-((R)-(2,3-difluorophenyl)(3-fluorophenyl)methyl)-3,5-dioxo-3,5,8,9,9a,10-hexahydro-7H-pyrrolo[1′,2′:4,5]pyrazino[1,2-b]pyridazin-4-yl acetate], the EC50 in experiment [1], in experiment [2] and in experiment [3] was under 100 nM each time.

`CCC(=O)Oc1c2n(ncc1=O)[C@@H]([C@H](c1cccc(F)c1)c1cccc(F)c1F)[C@H]1CCCN1C2=O` [Example 106, (9aR,10S)-10-((R)-(2,3-difluorophenyl)(3-fluorophenyl)methyl)-3,5-dioxo-3,5,8,9,9a,10-hexahydro-7H-pyrrolo[1′,2′:4,5]pyrazino[1,2-b]pyridazin-4-yl propionate]: the EC50 in experiment [1], in experiment [2] and in experiment [3] was under 100 nM in each case.

For `CC(C)C(=O)Oc1c2n(ncc1=O)[C@@H]([C@H](c1cccc(F)c1)c1cccc(F)c1F)[C@H]1CCCN1C2=O` [Example 107, (9aR,10S)-10-((R)-(2,3-difluorophenyl)(3-fluorophenyl)methyl)-3,5-dioxo-3,5,8,9,9a,10-hexahydro-7H-pyrrolo[1′,2′:4,5]pyrazino[1,2-b]pyridazin-4-yl isobutyrate], the EC50 in experiment [1], in experiment [2] and in experiment [3] was under 100 nM each time.

In the case of `CC(C)C(=O)OCOc1c2n(ncc1=O)[C@@H]([C@H](c1cccc(F)c1)c1cccc(F)c1F)[C@H]1CCCN1C2=O` [Example 108, (((9aR,10S)-10-((R)-(2,3-difluorophenyl)(3-fluorophenyl)methyl)-3,5-dioxo-3,5,8,9,9a,10-hexahydro-7H-pyrrolo[1′,2′:4,5]pyrazino[1,2-b]pyridazin-4-yl)oxy)methyl isobutyrate], the EC50 in experiment [1], in experiment [2] and in experiment [3] was under 100 nM each time.

Turning to `CC(C)CC(=O)Oc1c2n(ncc1=O)[C@@H]([C@H](c1cccc(F)c1)c1cccc(F)c1F)[C@H]1CCCN1C2=O` [Example 110, (9aR,10S)-10-((R)-(2,3-difluorophenyl)(3-fluorophenyl)methyl)-3,5-dioxo-3,5,8,9,9a,10-hexahydro-7H-pyrrolo[1′,2′:4,5]pyrazino[1,2-b]pyridazin-4-yl 3-methylbutanoate], the EC50 in experiment [1], in experiment [2] and in experiment [3] was under 100 nM each time.

For the compound `COCCC(=O)Oc1c2n(ncc1=O)[C@@H]([C@H](c1cccc(F)c1)c1cccc(F)c1F)[C@H]1CCCN1C2=O` [Example 112, (9aR,10S)-10-((R)-(2,3-difluorophenyl)(3-fluorophenyl)methyl)-3,5-dioxo-3,5,8,9,9a,10-hexahydro-7H-pyrrolo[1′,2′:4,5]pyrazino[1,2-b]pyridazin-4-yl 3-methoxypropanoate], the EC50 in experiment [1], in experiment [2] and in experiment [3] was under 100 nM throughout.

For the compound `CC(=O)OCOc1c2n(ncc1=O)[C@@H]([C@H](c1cccc(F)c1)c1cccc(F)c1F)[C@H]1CCCN1C2=O` [Example 114, (((9aR,10S)-10-((R)-(2,3-difluorophenyl)(3-fluorophenyl)methyl)-3,5-dioxo-3,5,8,9,9a,10-hexahydro-7H-pyrrolo[1′,2′:4,5]pyrazino[1,2-b]pyridazin-4-yl)oxy)methyl acetate], the EC50 in experiment [1], in experiment [2] and in experiment [3] was under 100 nM each time.

For the origin of these results see patent US12071441B2, “10-(di(phenyl)methyl)-4-hydroxy-8,9,9A,10-tetrahydro-7H-pyrrolo[1′,2′:4,5]pyrazino[1,2-b]pyridazine-3,5-dione derivatives and related compounds as inhibitors of the orthomyxovirus replication for treating influenza” (Novartis AG, priority 2018, dated 2024).
